The structures appear in SMILES notation. Calls of active or inactive are those of the source. The calls are words filed in the database; no cut-off is given here.

One may read the IC50 as the concentration needed to halve the response being measured. High values mean lower potency, low ones higher potency.

In assay [1] the test system is MGC-803. In words: Antiproliferative activity against human MGC-803 cells incubated for 48 hrs by CCK8 assay. Format: functional, cell-based. Conditions: MGC-803, 48 h. (Formazan colour is commonly taken as a measure of viable cells.)
Assay [2] deals with T1, Tubulin (Homo sapiens) (UniProt P68371+Q9H4B7+P0DPH7+P68366+Q13509+Q71U36+P04350+Q3ZCM7+P07437+P68363+Q9BQE3+Q6PEY2+Q13885+Q9BVA1+Q9BUF5). Nature of the assay: […] of tubulin polymerization in human KYSE-450 cells assessed as inhibition of cell growth after 48 hrs relative to control. It is filed as cell-based.
The target in assay [3] is Tubulin beta (Homo sapiens) (UniProt P68371+Q9H4B7+Q13509+P04350+Q3ZCM7+P07437+Q13885+Q9BVA1+Q9BUF5+A6NNZ2). Nature of the assay: Binding affinity to beta-tubulin colchicine binding site in human KYSE-30 cells assessed as inhibition of tubulin-EBI adduct formation by EBI addition by Western blotting analysis. It is filed as cell-based. On the technique in general: A western blot detects proteins with antibodies after separation by electrophoresis.

In assay [4] the target is T1, Tubulin (Homo sapiens). In words: Inhibition of tubulin polymerization in human KYSE-30 cells by immunofluorescence assay. Format: cell-based.
Assay [5] deals with KYSE-450. Nature of the assay: Inhibition of colony formation in human KYSE-450 cells at 0.188 to 0.313 uM after 7 days by crystal violet staining based assay. Conditions: dose 0.188-0.313 µM, time 7.0 day. It is filed as functional, cell-based.
The target of assay [6] is T1, Tubulin (Homo sapiens). Nature of the assay: Inhibition of tubulin polymerization in human KYSE-450 cells assessed as reduction in cell viability upto 48 hrs. It is filed as cell-based. As to conditions: time hrs <=48, TDE = time-dependent effect.
Assay [7] concerns the target T1, Tubulin (Homo sapiens). In words: Inhibition of tubulin polymerization in human KYSE-30 cells assessed as reduction in cell viability. It is filed as cell-based.
In assay [8] the target is T1, Tubulin (Homo sapiens). Nature of the assay: Inhibition of tubulin polymerization in human KYSE-30 cells at 1.25 uM by immunofluorescence assay. Format: cell-based.
The subject of assay [9] is KYSE-450. In words: Induction of cell morphological changes in human KYSE-450 cells measured after 48 hrs. It is filed as functional, cell-based.

On to `O=C(Cc1ccccc1)N1CCc2cc(Br)ccc21`, for which, in assay [1], the midpoint of inhibition, the IC50, lay at 32.8 µM.
In the case of `COc1cc(C(=O)N2CCc3cc(Br)ccc32)cc(OC)c1OC`, the Activity entry in assay [2] is “Dose-Dependent Effect”. The result in assay [3] and in assay [9] was Active. Also, the figures for the inhibition result in [4], in assay [6] and in assay [7] were “Dose-Dependent Effect”, “Tde” and “Dose-Dependent Effect”, respectively. Further, the inhibition result in assay [5] and in [8] was “Active” each time.
